Source: patent US6291432A (Japan Energy Corporation, priority 1996, dated 2001)
Converted amounts (≈) assume the structure as drawn. Read-outs that look alike come from different tables or passages of the source.

Assays:
[1] = target: T1, recombinant HIV-1 protease (Human immunodeficiency virus type 1 group M subtype B, UniProt P04585); assay: HIV protease inhibition activity (enzyme activity inhibition rate); assay type: biochemical; details: for inhibition at 0.05 µM: read-out: Enzyme activity inhibition rate (%) (addition concentration of 50 nM)
T1 construct: measured using a recombinant HIV-1 protease
Method: The protease activity was measured using a recombinant HIV-1 protease (see Biochemistry, 250 (9)-264 (1990)) and a synthesized peptide substrate. The inhibition rate was calculated by determining a peptide fragment generated by cleavage between Tyr-Pro of the synthesized substrate after the reaction of 60 min at 37° C. using a reversed phase HPLC in the presence of the test compounds in various concentrations (see, for example, Japanese Patent Application Laid-open No. 170722/1993).
Examples of the evaluation results of the HIV protease inhibition activity of the tripeptide compound of the present invention by the above-described method is shown in Table 1. […] The concentration of the test compounds in Table 1 represents the final concentration in the reaction mixture.

[2] = target: T1, recombinant HIV-1 protease; assay: Evaluation of enzyme inhibition constant Ki; assay type: biochemical
Method: The synthesized peptide substrate having a sequence of H-Lys-Ala-Arg-Val-Tyr-Phe (4-NO2)-Glu-Ala-Nle-NH2 (SEQ ID NO. 1) was used in this experiment. The enzyme reaction was measured using a reversed phase HPLC by determining the C-terminal peptide fraction produced by cleavage just behind Tyr in the synthesized substrate which is obtained by reacting the following composition for 15 min. at 37° C. and stopping the reaction by the addition of 1N HCl (75 μl).
Composition of reaction mixture
Recombinant HIV-1 protease enzyme solution 10 μl
0.5 mM synthetic substrate aqueous solution 10 μl
DMSO Inhibitor solution 5 μl
0.2 M MES solution 25 μl
(1 M NaCl, 2 mM EDTA-2Na, 2 mM DTT, pH 5.5)
Column: Waters Nova-pak C18 (3.9×75 mm)
Eluent: A; water (0.1% TFA)
B; acetonitrile (0.1% TFA)
Flow rate: 2 ml/min isocratic; 10% B solution
Detection: Fluorescence 305 nm, excitation 275 nm

[3] = test system: HIV virus strain HIV-1 IIIB; assay: Anti-HIV activity in HIV infected CEM-SS cells (XTT method); assay type: cell-based; details: Human immunodeficiency virus 1, 144 h, HIV-1 IIIB infected CEM-SS cell, six days at 37° C.
Method: (§1) EP 0751145 A2). On a 96-well micro titre plate, the test compounds were added to the culture medium in various concentrations, then the HIV infected CEM-SS cell was added and incubated for six days at 37° C. using a CO2 incubator. The number of the living cells was then measured by a XTT method. On the other hand, in order to examine the cytotoxicity of the test compounds, the test compounds were added in various concentrations and the HIV virus non-infected cell was incubated under similar conditions. As the reference group, the HIV infected CEM-SS cell was incubated without the addition of the test compounds. Moreover, the HIV virus non-infected cell was incubated without the addition of the test compound as the control group. The anti-virus activity was evaluated in a concentration in which the cytotoxic effect caused by the HIV infected virus in the above HIV infected cell group was inhibited 50 percent (EC50, 50% effective concentration), and the cytotoxicity was evaluated in a concentration in which the cytotoxic effect by the addition of the test compound in the HIV virus non-infected cell group occurred at 50 percent (TC50, 50% cytotoxic concentration) respectively.

CEM-SS cell = assay: Cytotoxicity in HIV virus non-infected CEM-SS cells (XTT method); assay type: cell-based; details: six days, highest concentration 1.0 μg/ml
Method: as §1

[4] = 50 nM final concentration of test compound, 60 min at 37° C.

Molecule `CC1(C)SCN(C(=O)[C@@H](O)[C@H](Cc2ccccc2)NC(=O)[C@H](CC(N)=O)NC(=O)OCc2ccccc2)[C@@H]1C(=O)NCc1ccccc1` [Example 1, (R)-N-benzyl-3-{(2S,3S)-3-[N-(benzyloxycarbonyl)-L-asparaginyl]amino-2-hydroxy-4-phenylbutanoyl}-5,5-dimethyl-1,3-thiazolidine-4-carboxamide] has an inhibition at 0.05 µM [1, 4] of 96% and a Ki [2] of 0.019 nM.
Molecule `Cc1ccccc1CNC(=O)[C@H]1N(C(=O)[C@@H](O)[C@H](Cc2ccccc2)NC(=O)[C@H](CC(N)=O)NC(=O)OCc2ccccc2)CSC1(C)C` [Example 3, (R)-N-(2-methylbenzyl)-3-{(2S,3S)-3-[N-(benzyloxycarbonyl)-L-asparaginyl]amino-2-hydroxy-4-phenylbutanoyl}-5,5-dimethyl-1,3-thiazolidine-4-carboxamide] has an inhibition at 0.05 µM [1, 4] of 100% and a Ki [2] of 0.016 nM.
With `Cc1ccccc1CNC(=O)[C@H]1N(C(=O)[C@@H](O)[C@H](Cc2ccccc2)NC(=O)[C@H](CC(N)=O)NC(=O)c2cc(=O)c3ccccc3o2)CSC1(C)C` [Example 6, (R)-N-(2-methylbenzyl)-3-{(2S,3S)-3-[N-(2-chromonecarbonyl)-L-asparaginyl]amino-2-hydroxy-4-phenylbutanoyl}-5,5-dimethyl-1,3-thiazolidine-4-carboxamide] the “Enzyme activity inhibition rate (%) (addition concentration of 50 nM)” value [1, 4] was 98.4% and the Ki ([2]; reversible tight-binding inhibitor model, test compound 1-100 nM, 15 min at 37° C., pH 5.5, read-out: Enzyme inhibition constant Ki) was 0.0017 nM.
`Cc1ccccc1CNC(=O)[C@H]1N(C(=O)[C@@H](O)[C@H](Cc2ccccc2)NC(=O)[C@H](CC(N)=O)NC(=O)c2cc3ccccc3o2)CSC1(C)C` [Example 7, (R)-N-(2-methylbenzyl)-3-{(2S,3S)-3-[N-(2-benzofurancarbonyl)-L-asparaginyl]amino-2-hydroxy-4-phenylbutanoyl}-5,5-dimethyl-1,3-thiazolidine-4-carboxamide] showed an inhibition at 0.05 µM [1, 4] of 91.2% and a Ki [2] of 0.0048 nM.
In the case of `CC[C@H](NC(=O)OC)C(=O)N[C@@H](Cc1ccccc1)[C@H](O)C(=O)N1CSC(C)(C)[C@H]1C(=O)NCc1ccccc1C` [Example 28, (R)-N-(2-methylbenzyl)-3-{(2S,3S)-2-hydroxy-3-[(S)-2-(methoxycarbonyl)aminobutanoyl]amino-4-phenylbutanoyl}-5,5-dimethyl-1,3-thiazolidine-4-carboxamide], the inhibition at 0.05 µM [1, 4] is reported as 93.6% and the Ki [2] is reported as 0.242 nM.
`COCC(=O)N[C@H](C(=O)N[C@@H](Cc1ccccc1)[C@H](O)C(=O)N1CSC(C)(C)[C@H]1C(=O)NCc1ccccc1C)C(C)C` [Example 31, (R)-N-(2-methylbenzyl)-3-{(2S,3S)-2-hydroxy-3-[(S)-2-(methoxyacetyl)amino-3-methylbutanoyl]amino-4-phenylbutanoyl}-5,5-dimethyl-1,3-thiazolidine-4-car boxamide] showed an inhibition at 0.05 µM [1, 4] of 89.6%.
Work on `CCOCC(=O)N[C@H](C(=O)N[C@@H](Cc1ccccc1)[C@H](O)C(=O)N1CSC(C)(C)[C@H]1C(=O)NCc1ccccc1C)C(C)C` [Example 32, (R)-N-(2-methylbenzyl)-3-{(2S,3S)-2-hydroxy-3-[(S)-2-(ethoxyacetyl)amino-3-methylbutanoyl]amino-4-phenylbutanoyl}-5,5-dimethyl-1,3-thiazolidine-4-carb oxamide] yielded an inhibition at 0.05 µM [1] of 96.4%.
`CC(=O)N[C@H](C(=O)N[C@@H](Cc1ccccc1)[C@H](O)C(=O)N1CSC(C)(C)[C@H]1C(=O)NCc1ccccc1C)C(C)C` [Example 33, (R)-N-(2-methylbenzyl)-3-{(2S,3S)-2-hydroxy-3-[(S)-2-acetylamino-3-methylbutanoyl]amino-4-phenylbutanoyl}-5,5-dimethyl-1,3-thiazolidine-4-carboxamide] gave an inhibition at 0.05 µM [1, 4] of 89.8%.
`CC[C@H](NC(C)=O)C(=O)N[C@@H](Cc1ccccc1)[C@H](O)C(=O)N1CSC(C)(C)[C@H]1C(=O)NCc1ccccc1C` [Example 34, (R)-N-(2-methylbenzyl)-3-{(2S,3S)-2-hydroxy-3-[(S)-2-acetylaminobutanoyl]amino-4-phenylbutanoyl}-5,5-dimethyl-1,3-thiazolidine-4-carboxamide] gave an inhibition at 0.05 µM [1, 4] of 88.9%.
Work on `Cc1ccccc1CNC(=O)[C@H]1N(C(=O)[C@@H](O)[C@H](Cc2ccccc2)NC(=O)[C@@H](NS(C)(=O)=O)C(C)C)CSC1(C)C` [Example 37, (R)-N-(2-methylbenzyl)-3-{(2S,3S)-2-hydroxy-3-[(S)-2-methanesulfonylamino-3-methylbutanoyl]amino-4-phenylbutanoyl}-5,5-dimethyl-1,3-thiazolidine-4-car boxamide] yielded an inhibition at 0.05 µM [1, 4] of 70.1%.
With `CC[C@H](NS(C)(=O)=O)C(=O)N[C@@H](Cc1ccccc1)[C@H](O)C(=O)N1CSC(C)(C)[C@H]1C(=O)NCc1ccccc1C` [Example 38, (R)-N-(2-methylbenzyl)-3-{(2S,3S)-2-hydroxy-3-[(S)-2-methanesulfonylaminobutanoyl]amino-4-phenylbutanoyl}-5,5-dimethyl-1,3-thiazolidine-4-carboxamide] the inhibition at 0.05 µM [1, 4] was 76%.
`COC(=O)N[C@H](C(=O)N[C@@H](Cc1ccccc1)[C@H](O)C(=O)N1CSC(C)(C)[C@H]1C(=O)NCc1ccccc1C)[C@@H](C)O` [Example 39, (R)-N-(2-methylbenzyl)-3-{(2S,3S)-2-hydroxy-3-[N-(methoxycarbonyl)-L-threonyl]amino-4-phenylbutanoyl}-5,5-dimethyl-1,3-thiazolidine-4-carboxamide] showed an inhibition at 0.05 µM [1, 4] of 84.6%.
Work on `COC(=O)N[C@@H](CC(N)=O)C(=O)N[C@@H](Cc1ccccc1)[C@H](O)C(=O)N1CSC(C)(C)[C@H]1C(=O)NCc1ccccc1C` [Example 40, (R)-N-(2-methylbenzyl)-3-{(2S,3S)-2-hydroxy-3-[N-(methoxycarbonyl)-L-asparaginyl]amino-4-phenylbutanoyl}-5,5-dimethyl-1,3-thiazolidine-4-carboxamide] yielded an inhibition at 0.05 µM [1, 4] of 94.3%.
With `CC(C)c1nc(CN(C)C(=O)N[C@H](C(=O)N[C@@H](Cc2ccccc2)C[C@H](O)[C@H](Cc2ccccc2)NC(=O)OCc2cncs2)C(C)C)cs1` [Ritonavir, reference compound] the EC50 [3] was 0.033 µg/mL (≈ 0.0458 µM) and the “Cytotoxicity TC50” value (CEM-SS cell) was greater than 1.0 µg/mL.
In the case of `CC(C)(C)NC(=O)[C@H]1N(C(=O)[C@@H](O)[C@H](Cc2ccccc2)NC(=O)[C@H](CC(N)=O)NC(=O)OCc2ccccc2)CSC1(C)C` [reference compound], the Ki [2] is reported as 0.212 nM.
For “(R)-N-(2-methylbenzyl)-3-{(2S,3S)-3-[N-(3-benzylphenoxyacetyl)-L-valyl]amin o-2-hydroxy-4-phenylbutanoyl}-5,5-dimethyl-1,3-thiazolidine-4-carboxamide [Example 17]”, the “Enzyme activity inhibition rate (%) (addition concentration of 50 nM)” value [1, 4] was 97.1%.
